{"source": "ChEMBL document CHEMBL1201862", "about": "“PubChem BioAssay data set” (2004)", "key": {"[1]": {"biological_target": "Serine/threonine-protein kinase Chk2 (Homo sapiens, UniProt O96017)", "sequence (O96017 whole entry)": "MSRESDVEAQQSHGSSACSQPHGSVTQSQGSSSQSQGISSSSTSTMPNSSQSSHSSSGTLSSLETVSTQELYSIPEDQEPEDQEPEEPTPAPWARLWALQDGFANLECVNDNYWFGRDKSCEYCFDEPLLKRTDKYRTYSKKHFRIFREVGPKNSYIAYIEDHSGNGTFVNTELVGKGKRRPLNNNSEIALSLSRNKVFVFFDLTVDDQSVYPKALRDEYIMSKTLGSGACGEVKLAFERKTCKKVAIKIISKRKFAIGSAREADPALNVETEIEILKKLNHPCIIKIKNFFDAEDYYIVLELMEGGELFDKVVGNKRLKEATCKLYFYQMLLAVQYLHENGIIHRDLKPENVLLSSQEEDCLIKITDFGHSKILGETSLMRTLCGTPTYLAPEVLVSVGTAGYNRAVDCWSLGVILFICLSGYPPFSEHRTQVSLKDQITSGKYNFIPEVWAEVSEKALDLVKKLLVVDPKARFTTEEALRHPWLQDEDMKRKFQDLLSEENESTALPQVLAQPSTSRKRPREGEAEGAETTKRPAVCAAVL", "format": "functional"}, "[2]": {"biological_target": "Calcium/calmodulin-dependent protein kinase type II subunit delta (Homo sapiens, UniProt Q13557)", "sequence (Q13557 whole entry)": "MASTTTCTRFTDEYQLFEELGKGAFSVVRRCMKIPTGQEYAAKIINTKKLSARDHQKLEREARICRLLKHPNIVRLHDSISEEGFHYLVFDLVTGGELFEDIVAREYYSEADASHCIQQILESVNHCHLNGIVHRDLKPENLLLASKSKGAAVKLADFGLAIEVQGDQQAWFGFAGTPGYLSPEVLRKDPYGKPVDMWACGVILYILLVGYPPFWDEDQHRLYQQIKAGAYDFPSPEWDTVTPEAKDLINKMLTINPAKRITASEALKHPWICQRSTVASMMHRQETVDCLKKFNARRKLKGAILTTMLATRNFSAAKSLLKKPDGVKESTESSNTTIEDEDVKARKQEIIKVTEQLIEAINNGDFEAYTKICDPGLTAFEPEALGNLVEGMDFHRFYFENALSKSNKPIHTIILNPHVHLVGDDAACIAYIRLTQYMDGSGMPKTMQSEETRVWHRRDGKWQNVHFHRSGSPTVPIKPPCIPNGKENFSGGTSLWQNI", "format": "functional"}, "[3]": {"biological_target": "Non-receptor tyrosine-protein kinase TYK2 (Homo sapiens, UniProt P29597)", "format": "functional"}, "[4]": {"biological_target": "Casein kinase I isoform delta (Homo sapiens, UniProt P48730)", "sequence (P48730 whole entry, canonical isoform)": "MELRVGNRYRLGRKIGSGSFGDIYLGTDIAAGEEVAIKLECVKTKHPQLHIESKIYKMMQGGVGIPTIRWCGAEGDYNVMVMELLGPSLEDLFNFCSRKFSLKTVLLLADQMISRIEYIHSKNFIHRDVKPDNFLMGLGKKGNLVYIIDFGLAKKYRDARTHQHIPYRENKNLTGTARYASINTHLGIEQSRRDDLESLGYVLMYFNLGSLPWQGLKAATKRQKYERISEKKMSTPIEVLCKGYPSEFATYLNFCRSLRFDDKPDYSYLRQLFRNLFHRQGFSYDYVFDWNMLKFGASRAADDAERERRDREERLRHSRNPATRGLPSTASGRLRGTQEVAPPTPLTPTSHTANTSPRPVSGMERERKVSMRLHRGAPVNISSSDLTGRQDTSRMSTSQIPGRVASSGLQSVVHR", "format": "functional"}, "[5]": {"biological_target": "Interleukin-1 receptor-associated kinase 1 (Homo sapiens, UniProt P51617)", "sequence (P51617 whole entry)": "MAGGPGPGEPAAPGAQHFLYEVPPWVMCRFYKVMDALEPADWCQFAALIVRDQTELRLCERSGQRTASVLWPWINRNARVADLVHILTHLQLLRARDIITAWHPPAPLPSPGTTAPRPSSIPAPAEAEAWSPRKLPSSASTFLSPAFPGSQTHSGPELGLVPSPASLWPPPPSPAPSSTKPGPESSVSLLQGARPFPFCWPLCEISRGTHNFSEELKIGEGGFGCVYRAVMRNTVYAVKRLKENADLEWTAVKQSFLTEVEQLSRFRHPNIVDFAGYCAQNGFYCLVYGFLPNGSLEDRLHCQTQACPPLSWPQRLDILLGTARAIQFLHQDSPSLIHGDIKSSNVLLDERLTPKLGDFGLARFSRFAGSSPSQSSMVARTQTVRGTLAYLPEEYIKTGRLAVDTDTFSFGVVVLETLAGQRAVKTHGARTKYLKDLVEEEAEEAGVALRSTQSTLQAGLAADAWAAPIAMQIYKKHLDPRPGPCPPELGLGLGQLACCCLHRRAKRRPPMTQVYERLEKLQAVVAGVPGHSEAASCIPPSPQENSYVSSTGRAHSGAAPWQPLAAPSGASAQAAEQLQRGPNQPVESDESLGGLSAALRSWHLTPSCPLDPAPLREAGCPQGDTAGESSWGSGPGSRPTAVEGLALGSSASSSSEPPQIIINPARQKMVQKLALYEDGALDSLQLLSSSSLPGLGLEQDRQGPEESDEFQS", "format": "functional"}, "[6]": {"biological_target": "Maternal embryonic leucine zipper kinase (Homo sapiens, UniProt Q14680)", "sequence (Q14680 whole entry)": "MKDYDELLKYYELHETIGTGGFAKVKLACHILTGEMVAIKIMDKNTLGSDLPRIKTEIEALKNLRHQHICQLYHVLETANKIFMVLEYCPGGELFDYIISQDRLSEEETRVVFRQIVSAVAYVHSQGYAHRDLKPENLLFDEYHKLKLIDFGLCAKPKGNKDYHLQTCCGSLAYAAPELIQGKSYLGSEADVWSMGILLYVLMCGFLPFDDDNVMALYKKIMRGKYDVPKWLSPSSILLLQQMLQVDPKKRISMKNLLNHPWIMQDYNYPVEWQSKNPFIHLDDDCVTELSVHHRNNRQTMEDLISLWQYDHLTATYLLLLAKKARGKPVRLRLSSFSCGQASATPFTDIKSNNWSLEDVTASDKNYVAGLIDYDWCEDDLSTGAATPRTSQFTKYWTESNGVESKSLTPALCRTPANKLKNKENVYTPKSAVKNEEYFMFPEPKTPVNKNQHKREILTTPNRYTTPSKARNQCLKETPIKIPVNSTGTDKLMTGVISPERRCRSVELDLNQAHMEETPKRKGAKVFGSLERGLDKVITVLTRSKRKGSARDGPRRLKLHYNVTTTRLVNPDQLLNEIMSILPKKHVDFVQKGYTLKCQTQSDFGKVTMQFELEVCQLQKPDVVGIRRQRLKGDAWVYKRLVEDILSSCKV", "format": "functional"}, "[7]": {"biological_target": "Interleukin-1 receptor-associated kinase 4 (Homo sapiens, UniProt Q9NWZ3)", "sequence (Q9NWZ3 whole entry)": "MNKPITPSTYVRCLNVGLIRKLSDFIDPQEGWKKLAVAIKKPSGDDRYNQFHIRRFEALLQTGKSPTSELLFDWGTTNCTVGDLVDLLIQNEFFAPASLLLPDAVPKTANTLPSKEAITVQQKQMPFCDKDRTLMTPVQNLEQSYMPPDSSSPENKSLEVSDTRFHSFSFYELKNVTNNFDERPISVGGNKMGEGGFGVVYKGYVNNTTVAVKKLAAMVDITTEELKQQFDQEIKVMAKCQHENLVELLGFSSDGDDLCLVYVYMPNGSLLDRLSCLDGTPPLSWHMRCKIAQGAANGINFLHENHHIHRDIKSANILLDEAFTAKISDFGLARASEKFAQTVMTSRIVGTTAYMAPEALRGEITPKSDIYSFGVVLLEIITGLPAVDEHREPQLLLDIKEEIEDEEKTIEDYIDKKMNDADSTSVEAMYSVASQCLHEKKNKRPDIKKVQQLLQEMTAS", "format": "functional"}, "[8]": {"biological_target": "Mitogen-activated protein kinase kinase kinase kinase 5 (Homo sapiens, UniProt Q9Y4K4)", "sequence (Q9Y4K4 whole entry)": "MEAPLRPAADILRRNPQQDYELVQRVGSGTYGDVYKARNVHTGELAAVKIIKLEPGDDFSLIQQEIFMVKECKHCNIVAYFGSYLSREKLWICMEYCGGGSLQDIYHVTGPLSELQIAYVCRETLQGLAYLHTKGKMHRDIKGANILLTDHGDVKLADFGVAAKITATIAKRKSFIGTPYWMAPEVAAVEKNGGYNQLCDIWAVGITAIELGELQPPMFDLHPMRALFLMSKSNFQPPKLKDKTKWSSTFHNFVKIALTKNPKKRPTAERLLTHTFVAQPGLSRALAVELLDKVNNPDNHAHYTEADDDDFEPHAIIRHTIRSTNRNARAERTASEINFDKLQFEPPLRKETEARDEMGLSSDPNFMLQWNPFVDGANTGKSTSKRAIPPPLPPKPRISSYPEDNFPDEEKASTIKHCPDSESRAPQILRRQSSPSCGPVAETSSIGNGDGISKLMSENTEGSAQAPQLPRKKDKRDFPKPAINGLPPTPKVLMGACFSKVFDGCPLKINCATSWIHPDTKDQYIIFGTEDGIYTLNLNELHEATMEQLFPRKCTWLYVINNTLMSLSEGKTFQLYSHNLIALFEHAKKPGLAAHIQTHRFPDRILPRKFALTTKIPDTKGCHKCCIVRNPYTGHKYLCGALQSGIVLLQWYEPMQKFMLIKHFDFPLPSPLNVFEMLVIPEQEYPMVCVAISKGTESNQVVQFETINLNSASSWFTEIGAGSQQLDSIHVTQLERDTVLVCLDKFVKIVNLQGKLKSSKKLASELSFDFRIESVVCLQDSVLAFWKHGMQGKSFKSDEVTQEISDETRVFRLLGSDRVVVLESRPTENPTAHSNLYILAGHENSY", "format": "functional"}, "[9]": {"biological_target": "Calcium/calmodulin-dependent protein kinase type 1 (Homo sapiens, UniProt Q14012)", "format": "functional"}, "[10]": {"biological_target": "Cyclin-dependent kinase 1 (Homo sapiens, UniProt P06493)", "sequence (P06493 whole entry)": "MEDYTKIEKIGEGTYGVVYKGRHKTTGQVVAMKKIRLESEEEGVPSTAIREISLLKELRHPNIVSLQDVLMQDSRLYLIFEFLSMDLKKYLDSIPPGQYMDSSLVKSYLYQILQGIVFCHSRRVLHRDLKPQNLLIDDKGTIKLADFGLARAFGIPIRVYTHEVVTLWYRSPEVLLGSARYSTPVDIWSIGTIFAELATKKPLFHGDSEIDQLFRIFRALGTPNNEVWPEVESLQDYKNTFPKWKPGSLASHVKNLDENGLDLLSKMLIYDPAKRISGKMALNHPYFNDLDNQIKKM", "format": "functional"}, "[11]": {"biological_target": "STE20-like serine/threonine-protein kinase (Homo sapiens, UniProt Q9H2G2)", "format": "functional"}, "[12]": {"biological_target": "T1, Histone-lysine N-methyltransferase NSD2 (Homo sapiens, UniProt O96028)", "T1 sequence (O96028 whole entry)": "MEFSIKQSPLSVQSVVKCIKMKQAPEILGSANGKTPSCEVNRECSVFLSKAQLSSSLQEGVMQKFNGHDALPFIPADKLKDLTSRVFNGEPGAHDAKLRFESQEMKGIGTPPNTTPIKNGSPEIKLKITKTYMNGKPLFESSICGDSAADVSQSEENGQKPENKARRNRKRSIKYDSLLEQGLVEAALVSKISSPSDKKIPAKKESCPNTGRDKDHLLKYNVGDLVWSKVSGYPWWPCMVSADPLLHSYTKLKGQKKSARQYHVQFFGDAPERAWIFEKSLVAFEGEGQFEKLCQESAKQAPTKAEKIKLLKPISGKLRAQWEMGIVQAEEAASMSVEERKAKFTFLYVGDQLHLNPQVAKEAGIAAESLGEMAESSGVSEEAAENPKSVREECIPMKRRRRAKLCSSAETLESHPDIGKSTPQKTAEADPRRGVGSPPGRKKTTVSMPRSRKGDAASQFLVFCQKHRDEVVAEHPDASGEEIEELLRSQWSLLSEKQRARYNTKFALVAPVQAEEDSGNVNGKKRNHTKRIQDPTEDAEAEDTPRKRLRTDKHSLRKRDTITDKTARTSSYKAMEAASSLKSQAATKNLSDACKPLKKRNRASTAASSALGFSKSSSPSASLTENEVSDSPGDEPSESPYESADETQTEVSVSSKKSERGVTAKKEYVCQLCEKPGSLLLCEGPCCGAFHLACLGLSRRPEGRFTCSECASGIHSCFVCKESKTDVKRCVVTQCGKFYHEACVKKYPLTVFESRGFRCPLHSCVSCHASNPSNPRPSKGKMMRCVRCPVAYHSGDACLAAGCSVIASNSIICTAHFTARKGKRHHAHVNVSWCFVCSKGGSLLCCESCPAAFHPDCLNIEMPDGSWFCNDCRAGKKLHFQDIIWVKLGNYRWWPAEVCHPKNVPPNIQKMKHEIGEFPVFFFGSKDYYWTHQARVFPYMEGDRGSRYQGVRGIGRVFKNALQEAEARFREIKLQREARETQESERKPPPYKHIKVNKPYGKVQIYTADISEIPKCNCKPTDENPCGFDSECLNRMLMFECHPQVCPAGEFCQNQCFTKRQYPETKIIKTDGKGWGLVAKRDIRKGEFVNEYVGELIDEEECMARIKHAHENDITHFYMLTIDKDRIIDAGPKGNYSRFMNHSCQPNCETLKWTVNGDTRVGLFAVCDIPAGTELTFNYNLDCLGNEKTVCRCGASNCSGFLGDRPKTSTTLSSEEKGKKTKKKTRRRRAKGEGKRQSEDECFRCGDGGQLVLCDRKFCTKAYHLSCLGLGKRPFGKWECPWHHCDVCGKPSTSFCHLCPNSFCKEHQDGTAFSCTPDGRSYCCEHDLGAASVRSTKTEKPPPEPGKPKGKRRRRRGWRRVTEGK", "format": "biochemical"}, "[13]": {"biological_target": "Dual specificity protein kinase CLK4 (Homo sapiens, UniProt Q9HAZ1)", "sequence (Q9HAZ1 whole entry)": "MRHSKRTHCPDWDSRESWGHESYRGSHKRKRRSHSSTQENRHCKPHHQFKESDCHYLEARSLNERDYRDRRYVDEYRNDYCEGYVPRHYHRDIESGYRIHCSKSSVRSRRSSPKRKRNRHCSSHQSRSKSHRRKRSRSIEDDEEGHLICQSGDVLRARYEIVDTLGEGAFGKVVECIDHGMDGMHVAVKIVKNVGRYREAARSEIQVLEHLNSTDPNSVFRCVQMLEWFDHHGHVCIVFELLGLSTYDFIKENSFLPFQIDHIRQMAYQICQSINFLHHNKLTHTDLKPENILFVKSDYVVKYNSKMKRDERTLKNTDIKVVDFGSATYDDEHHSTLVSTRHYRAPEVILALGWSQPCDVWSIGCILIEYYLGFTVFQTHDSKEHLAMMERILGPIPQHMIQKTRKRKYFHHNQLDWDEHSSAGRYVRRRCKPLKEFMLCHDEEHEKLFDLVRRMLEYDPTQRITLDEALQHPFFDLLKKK", "format": "functional"}}, "note": "Calls of active or inactive are those of the source."}
{"smiles": "OC1CCC(Nc2nc(Cl)cc(-c3c[nH]c4ncccc34)n2)CC1", "note": "(stereo unspecified)", "values": [{"measurement": "Ki", "setting": "[1]", "value": "> 1580 nM (inactive)"}, {"measurement": "Ki", "setting": "[2]", "value": "63.1 nM (active)"}, {"measurement": "pKi", "setting": "[2]", "value": 7.2}, {"measurement": "Ki", "setting": "[3]", "value": "1000 nM (active)"}, {"measurement": "Ki", "setting": "[4]", "value": "20 nM (active)"}, {"measurement": "pKi", "setting": "[4]", "value": 7.7}, {"measurement": "Ki", "setting": "[5]", "value": "79.4 nM (active)"}, {"measurement": "pKi", "setting": "[5]", "value": 7.1}, {"measurement": "Ki", "setting": "[6]", "value": "5.01 nM (active)"}, {"measurement": "pKi", "setting": "[6]", "value": 8.3}, {"measurement": "Ki", "setting": "[7]", "value": "39.8 nM (active)"}, {"measurement": "pKi", "setting": "[7]", "value": 7.4}, {"measurement": "Ki", "setting": "[8]", "value": "79.4 nM (active)"}, {"measurement": "pKi", "setting": "[8]", "value": 7.1}, {"measurement": "Ki", "setting": "[9]", "value": "> 794 nM (inactive)"}, {"measurement": "Ki", "setting": "[10]", "value": "39.8 nM (active)"}, {"measurement": "pKi", "setting": "[10]", "value": 7.4}, {"measurement": "Ki", "setting": "[11]", "value": "501 nM (active)"}, {"measurement": "pKi", "setting": "[11]", "value": 6.3}]}
{"smiles": "CCN(CC)CCCC(C)n1c2nc(=O)[nH]c(=O)c-2nc2cc(Cl)ccc21", "note": "(stereo unspecified)", "values": [{"measurement": "AC50", "setting": "[12]", "value": "1180 nM (active)"}]}
{"smiles": "COc1cccc(CNC(=O)c2cnc(-c3ccncc3)nc2)c1", "values": [{"measurement": "Ki", "setting": "[13]", "value": "> 2510 nM (inactive)"}]}
